In the supplement of paper PMC11562712:

Experiment: first-order primary biodegradation rate constant k (sorption-corrected, fDis-corrected) (d-1); higher = faster biodegradation
Outline: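 Sieved sediment at 50 g wet solid L^–1 was combined with river water from river segments in Germany, Switzerland, Spain and Greece, and 129 compounds were each added at 1 μg L^–1. The mixtures were shaken in the dark for 10 days at river water temperature (20.5 ± 3.5 °C), with three replicates. Filtered water-phase subsamples were analysed by ultra-high-performance liquid chromatography with Orbitrap tandem mass spectrometry. First-order rate constants were obtained by regressing log peak area, correcting for dissipation in azide-sterilised sorption controls and dividing by the dissolved fraction, with invalid fits excluded.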

[1] = river segment: Germany (DE) H_Contam, incubation temperature 24 °C
[2] = river segment: Germany (DE) T_Pris, incubation temperature 24 °C
[3] = river segment: Greece (EL) A_Contam, incubation temperature 19 °C
[4] = river segment: Greece (EL) G_Contam, incubation temperature 19 °C
[5] = river segment: Greece (EL) G_Pris, incubation temperature 19 °C
[6] = river segment: Greece (EL) L_Contam, incubation temperature 19 °C
[7] = river segment: Spain (ES) B_Contam, incubation temperature 24 °C
[8] = river segment: Spain (ES) C_Contam, incubation temperature 24 °C
[9] = river segment: Spain (ES) F_Pris_Salt, incubation temperature 24 °C
[10] = river segment: Spain (ES) L_Contam, incubation temperature 24 °C
[11] = river segment: Switzerland (CH) C_Contam, incubation temperature 17 °C
[12] = river segment: Switzerland (CH) R_Contam, incubation temperature 17 °C
[13] = river segment: Switzerland (CH) U_Pris, incubation temperature 17 °C
[14] = river segment: Germany (DE) T_Contam, incubation temperature 24 °C
[15] = river segment: Switzerland (CH) U_Contam, incubation temperature 17 °C

Row | first-order primary biodegradation rate constant k [1] | first-order primary biodegradation rate constant k [2] | first-order primary biodegradation rate constant k [3] | first-order primary biodegradation rate constant k [4] | first-order primary biodegradation rate constant k [5] | first-order primary biodegradation rate constant k [6] | first-order primary biodegradation rate constant k [7] | first-order primary biodegradation rate constant k [8] | first-order primary biodegradation rate constant k [9] | first-order primary biodegradation rate constant k [10] | first-order primary biodegradation rate constant k [11] | first-order primary biodegradation rate constant k [12] | first-order primary biodegradation rate constant k [13] | first-order primary biodegradation rate constant k [14] | first-order primary biodegradation rate constant k [15] | SMILES
1 | 0.0753 | 0.259 | 1.21 | 1.63 | 1.17 | 0.81 | 0.646 | 0.00288 | 0.0294 | 1.5 | 0.0717 | 0.119 | 0.0554 | – | – | Nc1ccc(S(=O)(=O)Nc2nccs2)cc1 [Sulfathiazole]
2 | 0.0462 | 0.00627 | 0.327 | – | 0.771 | 0.219 | 0.0714 | 0.102 | – | 0.219 | 0.0095 | 0.134 | 0.282 | 0.0831 | 0.139 | Cc1ccc2n[nH]nc2c1 [5-Methylbenzotriazole]
3 | 0.137 | – | 0.0748 | – | – | 0.0701 | 0.574 | 0.074 | 0.0381 | 0.158 | – | – | – | 0.18 | – | O=C(O)Cc1ccccc1Nc1c(Cl)cccc1Cl [Diclofenac]
4 | 0.387 | 0.365 | 1.16 | 0.652 | 2.31 | 1.2 | 0.38 | 0.286 | 0.221 | 0.565 | 0.44 | 0.57 | 1.15 | 1.31 | 0.383 | NC(=O)c1cn(Cc2c(F)cccc2F)nn1 [Rufinamide]
5 | – | – | 0.191 | – | – | – | 1.27 | 0.157 | – | 0.293 | – | 0.0997 | – | – | – | CC1=CC(=O)NS(=O)(=O)O1 [Acesulfame]
6 | 0.0433 | 0.0369 | – | 0.0189 | 0.111 | 0.756 | 0.107 | – | 0.426 | 0.142 | 0.0127 | 0.0926 | 0.0473 | 1.9 | 0.0534 | C=CCOc1ccccc1OCC(O)CNC(C)C (stereo not given) [Oxprenolol]
7 | 2.67 | 1.42 | – | – | – | – | – | 2.24 | 0.275 | 4.24 | – | – | – | – | – | CCCOC(=O)c1ccc(O)cc1 [Propylparaben]
8 | 0.132 | 0.076 | 0.193 | 0.107 | 0.0804 | 0.337 | 0.147 | 0.232 | 0.0178 | 0.217 | 0.0406 | 0.0937 | 0.171 | 0.195 | 0.108 | CC(C)NCC(O)c1ccc(NS(C)(=O)=O)cc1 (stereo not given) [Sotalol]
9 | 0.024 | – | – | 0.311 | – | 0.0588 | – | – | – | – | – | – | – | 0.00573 | 0.00361 | OC(Cn1cncn1)(Cn1cncn1)c1ccc(F)cc1F [Fluconazole]
10 | 1.4 | 1.68 | 2.03 | 0.169 | 3.52 | 3.5 | – | 2.41 | 0.228 | 4.19 | – | – | 4.31 | 2.27 | – | Cc1cc(O)cc(C)c1Cl [4-Chloro-3,5-dimethylphenol]
11 | – | 0.0157 | – | 0.658 | 0.133 | 0.113 | – | – | – | – | – | – | – | 0.0241 | 0.00582 | CC(C)(C#N)c1cc(Cn2cncn2)cc(C(C)(C)C#N)c1 [Anastrozole]

Row | SMILES | first-order primary biodegradation rate constant k [1] | first-order primary biodegradation rate constant k [2] | first-order primary biodegradation rate constant k [3] | first-order primary biodegradation rate constant k [4] | first-order primary biodegradation rate constant k [5] | first-order primary biodegradation rate constant k [6] | first-order primary biodegradation rate constant k [7] | first-order primary biodegradation rate constant k [8] | first-order primary biodegradation rate constant k [9] | first-order primary biodegradation rate constant k [10] | first-order primary biodegradation rate constant k [11] | first-order primary biodegradation rate constant k [12] | first-order primary biodegradation rate constant k [13] | first-order primary biodegradation rate constant k [14] | first-order primary biodegradation rate constant k [15]
12 | COc1ccc(NC(=O)N(C)C)cc1Cl [Metoxuron] | 0.0437 | 0.0159 | 0.209 | 0.0278 | 0.333 | 0.0742 | – | – | – | 0.0285 | – | – | – | 0.106 | 0.022
13 | C/C(=N\C#N)N(C)Cc1ccc(Cl)nc1 [Acetamiprid] | 0.0195 | 0.0162 | 0.097 | 0.0201 | 0.125 | 0.0691 | – | 0.00952 | – | 0.0364 | 0.031 | 0.139 | 0.386 | 0.217 | 0.106
14 | COC(=O)Nc1nc2ccccc2[nH]1 [Carbendazim] | 0.0157 | 0.00648 | 0.1 | – | 0.0594 | – | 0.0208 | 0.00806 | 0.03 | 0.0322 | – | – | 0.0192 | 0.155 | 0.0106
15 | CN(C)C(=O)Oc1cccc([N+](C)(C)C)c1 [Neostigmine] | – | – | – | – | 0.0309 | – | – | – | – | – | – | – | – | 0.101 | 0.486
